Common to all, as to assay type: cell-based
Test [1] concerns Calu-1 cells. The test can be described thus: Anti-proliferation (viability) of NSCLC Calu-1 cells, 3 days (Table 7, FIG. 2B). The following applies: Homo sapiens, 72 h; Calu-1 cells, 3 days, 10-point serial dilution; read-out: GI IC50 in Calu-1. The gist of the method:
(§1)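 Cells treated with heterobifunctional compounds in 10-point serial dilution, then viability measured; Calu-1 NSCLC cells exposed for 3 days, ER+ T47D breast cancer cells for 6 days.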

In test [2] the target is CDK4 (Homo sapiens, UniProt P11802+Q16531). The test can be described thus: CDK4 percentage degradation in Calu-1 cells (Table 6). Also noted: Cells that express cyclin D1-3 and CDK4/6 proteins were treated with heterobifunctional compounds; endogenous in cells; host or cells: Calu-1. The settings on record: 16 hours; for inhibition at 0.04 µM: 40 nM; for inhibition at 0.2 µM: 200 nM. The essentials:
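Percentage degradation of Cyclin D1 and CDK4 derived from densitometry of ECL Western blots on lysates of Calu-1 cells. Treatment was 16 h with compound at either 40 nM or 200 nM.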

In test [3] the test system is T47D cells. As to the kind of experiment: Anti-proliferation (viability) of ER+ breast cancer T47D cells, 6 days (Table 7, FIG. 2B). The following applies: Homo sapiens, 144 h; T47D cells, 6 days, 10-point serial dilution; read-out: GI IC50 in T47D. The essentials:
as §1

The test system of test [4] is MCF7 cells. As to the kind of experiment: Anti-proliferation (viability) of MCF7 cells (Table 7, FIG. 2B). The following applies: Homo sapiens, MCF7, MCF7 cells, 3-6 days, 10-point serial dilution; read-out: GI IC50 in MCF-7.

CDK4, sequence (P11802 2-303 limits assumed): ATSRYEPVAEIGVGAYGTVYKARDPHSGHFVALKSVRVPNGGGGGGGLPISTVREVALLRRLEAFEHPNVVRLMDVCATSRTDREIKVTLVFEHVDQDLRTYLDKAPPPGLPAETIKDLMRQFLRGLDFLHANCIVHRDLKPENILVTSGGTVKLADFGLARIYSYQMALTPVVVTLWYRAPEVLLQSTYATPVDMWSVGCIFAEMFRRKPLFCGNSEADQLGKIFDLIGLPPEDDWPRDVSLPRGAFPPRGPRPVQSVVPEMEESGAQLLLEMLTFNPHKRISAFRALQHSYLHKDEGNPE
CDK4, sequence (P24385 whole entry partner): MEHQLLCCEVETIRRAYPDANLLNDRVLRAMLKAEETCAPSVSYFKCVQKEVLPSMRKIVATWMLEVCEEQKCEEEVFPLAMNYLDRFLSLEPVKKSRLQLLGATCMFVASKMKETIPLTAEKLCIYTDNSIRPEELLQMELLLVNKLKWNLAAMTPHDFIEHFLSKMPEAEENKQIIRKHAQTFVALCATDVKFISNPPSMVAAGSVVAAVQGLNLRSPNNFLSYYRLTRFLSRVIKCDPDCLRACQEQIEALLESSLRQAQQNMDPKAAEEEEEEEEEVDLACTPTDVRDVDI
CDK4, sequence (Q16531 2-1140 limits assumed): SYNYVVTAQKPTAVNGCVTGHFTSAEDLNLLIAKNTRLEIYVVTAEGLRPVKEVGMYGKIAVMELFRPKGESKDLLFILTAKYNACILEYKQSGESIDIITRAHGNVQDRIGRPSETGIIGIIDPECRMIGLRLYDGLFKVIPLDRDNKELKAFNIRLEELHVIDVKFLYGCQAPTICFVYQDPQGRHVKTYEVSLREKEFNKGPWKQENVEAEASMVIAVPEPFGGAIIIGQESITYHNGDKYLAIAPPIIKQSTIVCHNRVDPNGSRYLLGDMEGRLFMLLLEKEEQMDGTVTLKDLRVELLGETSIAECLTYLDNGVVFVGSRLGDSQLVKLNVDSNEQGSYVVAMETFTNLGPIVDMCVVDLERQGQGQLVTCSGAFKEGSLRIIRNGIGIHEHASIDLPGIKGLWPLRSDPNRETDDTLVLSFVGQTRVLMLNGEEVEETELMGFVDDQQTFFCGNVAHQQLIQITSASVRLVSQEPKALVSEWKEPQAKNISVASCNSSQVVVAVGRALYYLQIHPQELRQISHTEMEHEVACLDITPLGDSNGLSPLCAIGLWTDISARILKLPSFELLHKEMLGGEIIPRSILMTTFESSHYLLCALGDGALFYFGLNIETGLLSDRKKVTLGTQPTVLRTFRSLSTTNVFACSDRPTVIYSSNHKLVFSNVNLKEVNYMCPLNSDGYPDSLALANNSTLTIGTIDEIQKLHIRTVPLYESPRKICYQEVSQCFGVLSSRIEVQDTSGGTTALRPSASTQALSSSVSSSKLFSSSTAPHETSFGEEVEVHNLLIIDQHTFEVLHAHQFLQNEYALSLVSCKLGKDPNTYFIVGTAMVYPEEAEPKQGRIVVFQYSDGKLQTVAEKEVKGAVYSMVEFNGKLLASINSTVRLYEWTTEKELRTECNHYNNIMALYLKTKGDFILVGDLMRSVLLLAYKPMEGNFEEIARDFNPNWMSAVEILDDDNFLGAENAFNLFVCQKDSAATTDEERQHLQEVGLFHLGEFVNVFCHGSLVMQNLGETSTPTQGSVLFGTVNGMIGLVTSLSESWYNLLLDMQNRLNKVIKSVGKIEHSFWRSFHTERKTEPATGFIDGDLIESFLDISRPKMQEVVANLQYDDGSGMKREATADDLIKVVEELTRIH

With `CNc1ccc(C(=O)Nc2ccc(N(C)C)nn2)c(NCCCCCNCCN2CCN(c3ccc(Nc4ncc5c(C)c(C(C)=O)c(=O)n(C6CCCC6)c5n4)nc3)CC2)n1` [CPD-21, 2-((5-((2-(4-(6-((6-Acetyl-8-cyclopentyl-5-methyl-7-oxo-7,8-dihydropyrido[2,3-d]pyrimidin-2-yl)amino)pyridin-3-yl)piperazin-1-yl)ethyl)amino)pentyl)amino)-N-(6-(dimethylamino)pyridazin-3-yl)-6-(methylamino)nicotinamide], the 50% inhibitory concentration (IC50) in test [1] is 10 to 50 nM; in test [3], 50 to 100 nM; in test [4] it was more than 100 nM. The compound further had an inhibition at 0.04 µM in test [2] of 50 to 80%.
Turning to `CNc1ccc(C(=O)Nc2ccc(N(C)C)nn2)c(NC2CCC(CCNC(=O)CN3CCN(c4ccc(Nc5ncc6c(C)c(C(C)=O)c(=O)n(C7CCCC7)c6n5)nc4)CC3)C2)n1` (stereo not drawn) [CPD-136, 2-((3-(2-(2-(4-(6-((6-Acetyl-8-cyclopentyl-5-methyl-7-oxo-7,8-dihydropyrido[2,3-d]pyrimidin-2-yl)amino)pyridin-3-yl)piperazin-1-yl)acetamido)ethyl)cyclopentyl)amino)-N-(6-(dimethylamino)pyridazin-3-yl)-6-(methylamino)nicotinamide], the IC50 is not above 10 nM in test [1], 50 to 100 nM in test [3] and more than 100 nM in test [4]. The inhibition at 0.04 µM in test [2] lay in the range of 50 to 80%. This compound also had an inhibition at 0.2 µM in test [2] of 50 to 80%.
With `CNc1ccc(C(=O)Nc2ccc(N(C)C)nn2)c(NC2CC3(C2)CN(C(=O)C2(CN4CCN(c5ccc(Nc6ncc7c(C)c(C(C)=O)c(=O)n(C8CCCC8)c7n6)nc5)CC4)CC2)C3)n1` [CPD-115, 2-((2-(1-((4-(6-((6-Acetyl-8-cyclopentyl-5-methyl-7-oxo-7,8-dihydropyrido[2,3-d]pyrimidin-2-yl)amino)pyridin-3-yl)piperazin-1-yl)methyl)cyclopropane-1-carbonyl)-2-azaspiro[3.3]heptan-6-yl)amino)-N-(6-(dimethylamino)pyridazin-3-yl)-6-(methylamino)nicotinamide], the IC50 in test [1] was not above 10 nM; in test [3] it was not above 50 nM; in test [4], more than 100 nM. Moreover, in test [2], the inhibition at 0.04 µM fell in the range of 50 to 80%. Moreover, the inhibition at 0.2 µM in test [2] lay in the range of 50 to 80%.
In the case of `CNc1ccc(C(=O)Nc2ccc(N(C)C)nn2)c(Nc2cc(CCNC(=O)CN3CCN(c4ccc(Nc5ncc6c(C)c(C(C)=O)c(=O)n(C7CCCC7)c6n5)nc4)CC3)no2)n1` [CPD-26, 2-((3-(2-(2-(4-(6-((6-Acetyl-8-cyclopentyl-5-methyl-7-oxo-7,8-dihydropyrido[2,3-d]pyrimidin-2-yl)amino)pyridin-3-yl)piperazin-1-yl)acetamido)ethyl)isoxazol-5-yl)amino)-N-(6-(dimethylamino)pyridazin-3-yl)-6-(methylamino)nicotinamide], the 50% inhibitory concentration (IC50) is 10 to 50 nM in test [1], 50 to 100 nM in test [3] and more than 100 nM in test [4]. Besides, in test [2], the inhibition at 0.04 µM was in the range of 50 to 80%. The compound further displayed an inhibition at 0.2 µM in test [2] of 50 to 80%.
On to `CNc1ccc(C(=O)Nc2ccc3ncn(C)c3n2)c(NCCCCCNC(=O)CN2CCN(c3ccc(Nc4ncc5c(C)c(C(C)=O)c(=O)n(C6CCCC6)c5n4)nc3)CC2)n1` [CPD-38, 2-((5-(2-(4-(6-((6-Acetyl-8-cyclopentyl-5-methyl-7-oxo-7,8-dihydropyrido[2,3-d]pyrimidin-2-yl)amino)pyridin-3-yl)piperazin-1-yl)acetamido)pentyl)amino)-N-(3-methyl-3H-imidazo[4,5-b]pyridin-5-yl)-6-(methylamino)nicotinamide], for which the results for the 50% inhibitory concentration (IC50) in test [1], in test [3] and in test [4] were not above 10 nM, 50 to 100 nM and more than 100 nM, respectively. In addition, the inhibition at 0.04 µM in test [2] was 50 to 80%. In test [2], this compound came in with an inhibition at 0.2 µM of more than 80%.
The like results for `CNc1ccc(C(=O)Nc2cc(C)n(C)n2)c(NCCCCCNC(=O)CN2CCN(c3ccc(Nc4ncc5c(C)c(C(C)=O)c(=O)n(C6CCCC6)c5n4)nc3)CC2)n1` [CPD-50, 2-((5-(2-(4-(6-((6-acetyl-8-cyclopentyl-5-methyl-7-oxo-7,8-dihydropyrido[2,3-d]pyrimidin-2-yl)amino)pyridin-3-yl)piperazin-1-yl)acetamido)pentyl)amino)-N-(1,5-dimethyl-1H-pyrazol-3-yl)-6-(methylamino)nicotinamide] were, in that order, not above 10 nM, 50 to 100 nM, less than 50 nM, 50 to 80% and 50 to 80%.
Turning to `CNc1ccc(C(=O)Nc2ccc3c(ccn3C)n2)c(NCCCCCNC(=O)CN2CCN(c3ccc(Nc4ncc5c(C)c(C(C)=O)c(=O)n(C6CCCC6)c5n4)nc3)CC2)n1` [CPD-33, 2-((5-(2-(4-(6-((6-Acetyl-8-cyclopentyl-5-methyl-7-oxo-7,8-dihydropyrido[2,3-d]pyrimidin-2-yl)amino)pyridin-3-yl)piperazin-1-yl)acetamido)pentyl)amino)-N-(1-methyl-1H-pyrrolo[3,2-b]pyridin-5-yl)-6-(methylamino)nicotinamide], the IC50 in test [1] is 10 to 50 nM; in test [3], 50 to 100 nM; in test [4], more than 100 nM. In test [2], this compound yielded an inhibition at 0.04 µM of 50 to 80%. The compound also returned an inhibition at 0.2 µM in test [2] of more than 80%.
`CNc1ccc(C(=O)Nc2ccc(N(C)C)nn2)c(NCCCCn2cc(CN3CCN(c4ccc(Nc5ncc6c(C)c(C(C)=O)c(=O)n(C7CCCC7)c6n5)nc4)CC3)nn2)n1` [CPD-30, 2-((4-(4-((4-(6-((6-Acetyl-8-cyclopentyl-5-methyl-7-oxo-7,8-dihydropyrido[2,3-d]pyrimidin-2-yl)amino)pyridin-3-yl)piperazin-1-yl)methyl)-1H-1,2,3-triazol-1-yl)butyl)amino)-N-(6-(dimethylamino)pyridazin-3-yl)-6-(methylamino)nicotinamide]: the IC50 in test [1] is 10 to 50 nM; in test [3] it was 50 to 100 nM; in test [4] it was more than 100 nM. The same compound showed an inhibition at 0.04 µM in test [2] of 50 to 80%. The inhibition at 0.2 µM in test [2] is more than 80%.
In the case of `CNc1ccc(C(=O)Nc2ccc(N(C)C)nn2)c(NC2CC(CC(=O)NCCN3CCN(c4ccc(Nc5ncc6c(C)c(C(C)=O)c(=O)n(C7CCCC7)c6n5)nc4)CC3)C2)n1` (stereo not drawn) [CPD-101, 2-((3-(2-((2-(4-(6-((6-Acetyl-8-cyclopentyl-5-methyl-7-oxo-7,8-dihydropyrido[2,3-d]pyrimidin-2-yl)amino)pyridin-3-yl)piperazin-1-yl)ethyl)amino)-2-oxoethyl)cyclobutyl)amino)-N-(6-(dimethylamino)pyridazin-3-yl)-6-(methylamino)nicotinamide], the half-inhibitory concentration (IC50) in test [1] is not above 10 nM; in test [3], 50 to 100 nM; in test [4], less than 50 nM. The compound also came in with an inhibition at 0.04 µM in test [2] of 50 to 80%. Further, in test [2], the inhibition at 0.2 µM was more than 80%.
Consider `CNc1ccc(C(=O)Nc2ccc(N(C)C)nn2)c(NC2CC(CCNC(=O)CN3CCN(c4ccc(Nc5ncc6c(C)c(C(C)=O)c(=O)n(C7CCCC7)c6n5)nc4)CC3)C2)n1` (stereo not drawn) [CPD-34, 2-((3-(2-(2-(4-(6-((6-Acetyl-8-cyclopentyl-5-methyl-7-oxo-7,8-dihydropyrido[2,3-d]pyrimidin-2-yl)amino)pyridin-3-yl)piperazin-1-yl)acetamido)ethyl)cyclobutyl)amino)-N-(6-(dimethylamino)pyridazin-3-yl)-6-(methylamino)nicotinamide], for which the IC50 was not above 10 nM in test [1], not above 50 nM in test [3] and less than 50 nM in test [4]. This compound also came in with an inhibition at 0.04 µM in test [2] of more than 80%. Besides, in test [2], the inhibition at 0.2 µM was more than 80%.
`CNc1ccc(C(=O)Nc2ccc(N(C)C)nn2)c(NCCCCC(C)NC(=O)CN2CCN(c3ccc(Nc4ncc5c(C)c(C(C)=O)c(=O)n(C6CCCC6)c5n4)nc3)CC2)n1` (stereo not drawn) [CPD-22, 2-((5-(2-(4-(6-((6-Acetyl-8-cyclopentyl-5-methyl-7-oxo-7,8-dihydropyrido[2,3-d]pyrimidin-2-yl)amino)pyridin-3-yl)piperazin-1-yl)acetamido)hexyl)amino)-N-(6-(dimethylamino)pyridazin-3-yl)-6-(methylamino)nicotinamide]: the half-inhibitory concentration (IC50) in test [1] is not above 10 nM; in test [3], not above 50 nM; in test [4], 50 to 100 nM. In addition, in test [2], the inhibition at 0.04 µM was more than 80%. In test [2], this compound gave an inhibition at 0.2 µM of more than 80%.
As to `CNc1ccc(C(=O)Nc2ccc(N(C)C)nn2)c(NCCCCCNC(=O)CN2CCN(c3ccc(Nc4ncc5c(C)c(C(C)=O)c(=O)n(C6CCCC6)c5n4)nc3)CC2)n1` [CPD-5, 2-((5-(2-(4-(6-((6-acetyl-8-cyclopentyl-5-methyl-7-oxo-7,8-dihydropyrido[2,3-d]pyrimidin-2-yl)amino)pyridin-3-yl)piperazin-1-yl)acetamido)pentyl)amino)-N-(6-(dimethylamino)pyridazin-3-yl)-6-(methylamino)nicotinamide], the concentration for half-maximal inhibition (IC50) in test [1] is not above 10 nM; in test [3], not above 50 nM; in test [4], less than 50 nM. In test [2], this compound returned an inhibition at 0.04 µM of 50 to 80%.
As to `CC(=O)c1c(C)c2cnc(Nc3ccc(N4CCN(CC(=O)NCCCCCNc5nc(NC(C)C)ccc5C(=O)Nc5ccc(N(C)C)nn5)CC4)cn3)nc2n(C2CCCC2)c1=O` [CPD-18, 2-((5-(2-(4-(6-((6-Acetyl-8-cyclopentyl-5-methyl-7-oxo-7,8-dihydropyrido[2,3-d]pyrimidin-2-yl)amino)pyridin-3-yl)piperazin-1-yl)acetamido)pentyl)amino)-N-(6-(dimethylamino)pyridazin-3-yl)-6-(isopropylamino)nicotinamide], the 50% inhibitory concentration (IC50) in test [1] is not above 10 nM; in test [3] it was not above 50 nM; in test [4] it was less than 50 nM. In test [2], this compound registered an inhibition at 0.04 µM of 50 to 80%. The inhibition at 0.2 µM in test [2] lay within 50 to 80%.

For the origin of these results see patent US20260297081A1, “COMPOUNDS AND METHODS OF TREATING CANCERS” (Cullgen Inc., priority 2023, published 2026).
